Patent EP1382597A2, “Steroid receptor modulator compounds and methods” (LIGAND PHARMACEUTICALS, INC., priority 1994, dated 1996)
Like-named read-outs stand apart in the source and are kept apart here.

What was measured:
MR = target: T1, MR (Homo sapiens, UniProt P08235); assay: Co-transfection assay, MR antagonist activity; type: cell-based; conditions: for Emax: CV-1, read-out: MR Antagonist CV-1 Cells Efficacy (%)
T1 construct: expressed in transfected cells; host or cells: CV-1 cells, transient transfection
T1 sequence (P08235 1-984): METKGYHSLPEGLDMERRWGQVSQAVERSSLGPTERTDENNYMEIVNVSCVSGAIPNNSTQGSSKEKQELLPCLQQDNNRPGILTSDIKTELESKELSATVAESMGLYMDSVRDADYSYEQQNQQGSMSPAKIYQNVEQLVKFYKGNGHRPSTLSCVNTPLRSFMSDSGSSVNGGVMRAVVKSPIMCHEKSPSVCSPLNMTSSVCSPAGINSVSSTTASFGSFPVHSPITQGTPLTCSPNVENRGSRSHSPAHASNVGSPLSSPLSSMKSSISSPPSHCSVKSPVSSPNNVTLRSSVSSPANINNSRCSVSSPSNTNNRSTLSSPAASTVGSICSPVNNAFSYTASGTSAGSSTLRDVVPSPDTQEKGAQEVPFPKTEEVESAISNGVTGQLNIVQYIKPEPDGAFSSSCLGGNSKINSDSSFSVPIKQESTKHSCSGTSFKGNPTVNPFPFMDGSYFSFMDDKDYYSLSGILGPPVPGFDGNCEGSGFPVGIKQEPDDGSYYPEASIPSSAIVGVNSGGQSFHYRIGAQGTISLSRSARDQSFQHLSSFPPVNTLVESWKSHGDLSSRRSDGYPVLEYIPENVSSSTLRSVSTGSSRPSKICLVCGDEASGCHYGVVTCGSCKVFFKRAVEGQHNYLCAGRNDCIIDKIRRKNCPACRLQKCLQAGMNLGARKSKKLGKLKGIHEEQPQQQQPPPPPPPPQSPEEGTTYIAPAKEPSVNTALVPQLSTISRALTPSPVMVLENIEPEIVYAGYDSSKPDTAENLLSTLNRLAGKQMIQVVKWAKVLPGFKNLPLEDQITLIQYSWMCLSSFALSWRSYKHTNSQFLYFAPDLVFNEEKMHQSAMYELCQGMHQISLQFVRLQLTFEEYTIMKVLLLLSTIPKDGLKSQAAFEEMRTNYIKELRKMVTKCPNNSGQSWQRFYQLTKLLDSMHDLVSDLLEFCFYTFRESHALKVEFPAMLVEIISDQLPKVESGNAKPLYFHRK

GR = target: T2, GR (Homo sapiens, UniProt P04150); assay: Co-transfection assay, GR antagonist activity; type: cell-based; conditions: for Emax: CV-1, read-out: GR Antagonist CV-1 Cells Efficacy (%)
T2 construct: expressed in transfected cells; host or cells: CV-1 cells, transient transfection
T2 sequence (P04150 1-777): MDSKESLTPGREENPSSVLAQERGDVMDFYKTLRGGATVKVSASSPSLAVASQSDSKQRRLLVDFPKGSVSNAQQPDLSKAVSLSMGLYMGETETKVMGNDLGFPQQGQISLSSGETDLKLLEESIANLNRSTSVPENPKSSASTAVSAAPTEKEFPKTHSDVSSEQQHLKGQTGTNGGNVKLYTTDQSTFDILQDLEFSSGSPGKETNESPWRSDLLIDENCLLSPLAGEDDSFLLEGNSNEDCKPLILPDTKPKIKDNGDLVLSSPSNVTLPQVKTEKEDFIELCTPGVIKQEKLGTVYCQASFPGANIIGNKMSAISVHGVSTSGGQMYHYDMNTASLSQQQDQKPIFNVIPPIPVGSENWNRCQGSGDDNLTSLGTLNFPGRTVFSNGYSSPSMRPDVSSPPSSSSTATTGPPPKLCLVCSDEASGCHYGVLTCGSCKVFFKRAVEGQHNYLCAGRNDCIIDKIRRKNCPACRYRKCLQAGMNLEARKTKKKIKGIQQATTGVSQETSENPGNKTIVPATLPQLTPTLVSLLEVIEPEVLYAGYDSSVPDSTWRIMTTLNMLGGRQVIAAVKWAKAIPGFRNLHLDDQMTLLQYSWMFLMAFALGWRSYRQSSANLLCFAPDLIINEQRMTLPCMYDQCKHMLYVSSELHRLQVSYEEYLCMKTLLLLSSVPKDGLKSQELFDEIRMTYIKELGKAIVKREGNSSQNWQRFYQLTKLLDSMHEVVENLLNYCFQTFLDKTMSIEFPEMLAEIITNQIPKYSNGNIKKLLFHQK

human PR-B [1] = target: T3, human PR-B (Homo sapiens, UniProt P06401); assay: Co-transfection assay, PR agonist activity; type: cell-based; conditions: for Emax: CV-1, read-out: PR Agonist CV-1 Cells Efficacy (%);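 for all read-outs here: CV-1 cells (African green monkey kidney) co-transfected with receptor plasmid and hormone-responsive firefly luciferase reporter, agonism read as compound-dependent rise in luciferase signal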
T3 construct: expressed in transfected cells; host or cells: CV-1 cells (African green monkey kidney fibroblasts), transient transfection
T3 sequence (P06401 1-933): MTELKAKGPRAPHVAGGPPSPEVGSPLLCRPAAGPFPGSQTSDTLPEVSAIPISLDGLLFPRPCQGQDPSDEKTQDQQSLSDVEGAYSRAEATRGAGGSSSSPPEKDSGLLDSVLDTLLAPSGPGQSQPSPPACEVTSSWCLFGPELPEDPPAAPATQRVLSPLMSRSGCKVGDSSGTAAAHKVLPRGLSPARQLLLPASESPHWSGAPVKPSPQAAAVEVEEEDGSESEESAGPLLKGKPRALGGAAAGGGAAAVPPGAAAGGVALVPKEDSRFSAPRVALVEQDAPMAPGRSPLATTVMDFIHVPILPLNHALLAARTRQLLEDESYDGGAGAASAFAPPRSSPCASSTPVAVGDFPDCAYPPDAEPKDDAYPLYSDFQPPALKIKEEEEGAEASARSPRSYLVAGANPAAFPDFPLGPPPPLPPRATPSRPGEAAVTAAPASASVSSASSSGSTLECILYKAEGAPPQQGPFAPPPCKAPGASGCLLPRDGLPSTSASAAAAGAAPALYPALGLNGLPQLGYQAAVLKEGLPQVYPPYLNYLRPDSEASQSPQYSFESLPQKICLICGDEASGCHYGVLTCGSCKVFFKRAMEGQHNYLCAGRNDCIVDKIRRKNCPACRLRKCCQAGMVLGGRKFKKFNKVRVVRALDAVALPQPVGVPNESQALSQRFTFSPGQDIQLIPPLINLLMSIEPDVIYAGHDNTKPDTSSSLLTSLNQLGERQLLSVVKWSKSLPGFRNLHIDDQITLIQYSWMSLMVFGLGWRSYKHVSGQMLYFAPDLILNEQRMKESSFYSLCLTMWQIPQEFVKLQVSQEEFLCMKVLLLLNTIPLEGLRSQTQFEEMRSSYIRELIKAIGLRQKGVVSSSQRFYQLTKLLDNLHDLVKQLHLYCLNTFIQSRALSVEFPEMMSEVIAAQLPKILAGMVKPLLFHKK

ER [2] = target: T4, ER (Homo sapiens, UniProt P03372); assay: Co-transfection assay, ER agonist activity; type: cell-based; conditions: for Emax: CV-1, read-out: ER Agonist CV-1 Cells Efficacy (%)
T4 construct: expressed in transfected cells; host or cells: CV-1 cells, transient transfection, with MTV-ERE5-LUC reporter
T4 sequence (P03372 whole entry): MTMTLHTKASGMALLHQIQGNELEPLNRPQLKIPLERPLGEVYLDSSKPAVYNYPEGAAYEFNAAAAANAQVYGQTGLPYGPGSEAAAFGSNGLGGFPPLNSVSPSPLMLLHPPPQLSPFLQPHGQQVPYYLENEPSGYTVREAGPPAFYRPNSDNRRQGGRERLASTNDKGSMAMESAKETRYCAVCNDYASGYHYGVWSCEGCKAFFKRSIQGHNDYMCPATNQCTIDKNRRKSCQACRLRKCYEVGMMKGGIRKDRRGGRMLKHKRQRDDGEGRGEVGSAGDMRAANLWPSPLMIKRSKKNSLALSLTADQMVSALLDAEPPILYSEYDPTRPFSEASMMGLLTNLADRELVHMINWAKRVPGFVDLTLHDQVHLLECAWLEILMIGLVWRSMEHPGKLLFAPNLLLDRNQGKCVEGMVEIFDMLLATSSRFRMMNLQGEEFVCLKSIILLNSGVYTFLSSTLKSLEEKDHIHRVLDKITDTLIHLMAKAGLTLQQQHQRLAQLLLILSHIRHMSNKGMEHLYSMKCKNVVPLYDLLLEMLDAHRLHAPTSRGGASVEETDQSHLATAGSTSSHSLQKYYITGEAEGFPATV

ER [3] = target: T4, ER; assay: Co-transfection assay, ER antagonist activity; type: cell-based; conditions: for ER Antagonist CV-1 Cells Efficacy (%): percent maximal inhibition, estradiol at its EC50
PR = assay: Uterine wet weight assay (PR agonist effectiveness); type: in vivo, Sprague-Dawely rats; conditions: for effect on uterine wet weight: co-administered with estrone, doses of 0.3 mg, 1.0 mg, and 3.0 mg/rat
Excerpt: J. Obstet. […] R.I. Dorfman, Academic Press, New York, New York, pp101-130 (1969), the disclosures of which are herein incorporated by reference. Four to five week old, ovariectomized, Sprague-Dawely rats (Harlan-Sprague-Dawely, Indianapolis, IN) were obtained 1 week after surgery and allowed to acclimate for an additional week after shipment.

AR = target: T5, AR (Homo sapiens, UniProt P10275); assay: Co-transfection assay, AR antagonist activity; type: cell-based
T5 construct: expressed in transfected cells; host or cells: CV-1 cells, transient transfection
T5 sequence (P10275 whole entry): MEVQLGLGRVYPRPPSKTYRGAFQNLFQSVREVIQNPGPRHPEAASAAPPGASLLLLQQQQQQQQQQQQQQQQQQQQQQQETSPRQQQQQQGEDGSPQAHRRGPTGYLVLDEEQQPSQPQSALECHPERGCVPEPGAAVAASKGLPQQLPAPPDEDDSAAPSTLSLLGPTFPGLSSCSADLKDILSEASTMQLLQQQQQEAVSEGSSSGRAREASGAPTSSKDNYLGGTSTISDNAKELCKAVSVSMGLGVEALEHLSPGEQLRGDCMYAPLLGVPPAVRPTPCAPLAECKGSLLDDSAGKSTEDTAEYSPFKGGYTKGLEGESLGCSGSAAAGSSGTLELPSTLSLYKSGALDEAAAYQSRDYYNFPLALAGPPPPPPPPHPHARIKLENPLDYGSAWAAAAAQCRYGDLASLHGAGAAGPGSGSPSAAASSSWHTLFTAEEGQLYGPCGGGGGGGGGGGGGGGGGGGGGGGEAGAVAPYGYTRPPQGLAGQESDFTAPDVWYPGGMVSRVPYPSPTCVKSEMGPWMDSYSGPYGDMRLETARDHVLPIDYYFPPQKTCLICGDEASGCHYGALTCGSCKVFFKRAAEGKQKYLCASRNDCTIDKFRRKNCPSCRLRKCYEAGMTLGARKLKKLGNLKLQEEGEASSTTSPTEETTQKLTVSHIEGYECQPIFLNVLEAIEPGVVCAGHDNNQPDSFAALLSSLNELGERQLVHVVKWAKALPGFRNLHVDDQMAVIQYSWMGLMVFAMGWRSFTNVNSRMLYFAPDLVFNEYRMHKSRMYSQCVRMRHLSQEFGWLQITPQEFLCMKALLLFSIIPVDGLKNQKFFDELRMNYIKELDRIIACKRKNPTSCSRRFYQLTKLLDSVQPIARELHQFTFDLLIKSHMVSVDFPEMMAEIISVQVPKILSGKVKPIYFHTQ

human PR-B [4] = target: T3, human PR-B; assay: Co-transfection assay, PR antagonist activity; type: cell-based; conditions: for Emax: CV-1, read-out: PR Antagonist CV-1 Cells Efficacy (%);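 for all read-outs here: monkey kidney fibroblasts co-transfected with receptor expression plasmid and hormone-responsive luciferase reporter, antagonism read as reduced luciferase signal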

Compound: CC#C[C@]1(O)CC[C@H]2[C@@H]3CCC4=CC(=O)CCC4=C3[C@@H](c3ccc(N(C)C)cc3)C[C@@]21C [RU486, (11beta, 17beta)-11-[4-(dimethylamino)phenyl]-17-hydroxy-17-(1-propynyl)estra-4,9-dien-3-one, reference compound]
- Emax (MR): 77%
- Emax (GR): 100%
- Emax (human PR-B [1]): < 20%

Compound: 8-Fluoro-1,2-dihydro-2,2,4-trimethylindeno[1,2-g]quinoline [Compound 124]
- IC50 (MR; Table 5 overall potency, co-transfection assay, read-out: MR Potency Antag): > 10 µM
- IC50 (GR; Table 5 overall potency, co-transfection assay, read-out: GR Potency Antag): > 10 µM
- EC50 (ER [2]; Table 5 overall potency, co-transfection assay, read-out: ER Potency Agon): 2.1 µM
- IC50 (ER [3]; Table 5 overall potency, co-transfection assay, read-out: ER Potency Antag): > 10000 nM

Compound: CC1=CC(C)(C)Nc2ccc3c(c21)C(c1ccc(C)cc1)Oc1ccccc1-3 (racemic) [Compound 167, (R/S)-1,2-Dihydro-2,2,4-trimethyl-5-(4-methylphenyl)-5H-chromeno[3,4-f]quinoline]
- Emax (MR): 61%
- Emax (GR): 96%

Compound: CC(=O)S[C@@H]1CC2=CC(=O)CC[C@]2(C)[C@H]2CC[C@@]3(C)[C@@H](CC[C@@]34CCC(=O)O4)[C@H]12 [Spir, 7-alpha-[acetylthio]-17-alpha-hydroxy-3-oxopregn-4-ene-21-carboxylic acid gamma-lactone, reference compound]
- Emax (MR): 96%
- Emax (GR): 80%

Compound: C[C@]12CC[C@@H]3c4ccc(O)cc4CC[C@H]3[C@@H]1CCC2=O [estrone, reference compound]
- Mean Uterine Wet Weight (PR; estrone 10 µg/day subcutaneous alone, three days, ovariectomized rats): 205 mg
- increase of uterine wet weight over control treated animals (PR; estrone alone): 4 fold

Compound: CC1=CC(C)(C)Nc2ccc3c(c21)C(c1cccc(C(F)(F)F)c1)Oc1ccccc1-3 (racemic) [Compound 195, (R/S) 1,2-Dihydro-2,2,4-trimethyl-5-[3-(trifluoromethyl)phenyl]-5H-chromeno[3,4-f]quinoline]
- Emax (MR): 47%
- Emax (GR): 96%
- Emax (ER [2]): 90%
- IC50 (ER [3]): 4410 nM
- ER Antagonist CV-1 Cells Efficacy (%) (ER [3]): 68%
- IC50 (AR): 470 nM
- Emax (human PR-B [4]): < 20%
- Emax (human PR-B [1]): 89%

Compound: CCCCC1Oc2ccc(F)cc2-c2ccc3c(c21)C(C)=CC(C)(C)N3 (racemic) [Compound 210, (R/S)-5-Butyl-9-fluoro-1,2-dihydro-2,2,4-trimethyl-5H-chromeno[3,4-f]quinoline]
- effect on uterine wet weight (PR): decreased by approximately half

Compound: CC(=O)O[C@]1(C(C)=O)CC[C@H]2[C@@H]3C[C@H](C)C4=CC(=O)CC[C@]4(C)[C@H]3CC[C@@]21C [MPA, medroxyprogesterone acetate, reference compound]
- effect on uterine wet weight (PR): significantly decreased the uterine wet weight

Compound: C=C1CC(C)(C)Nc2ccc3c(c21)C(c1cccc(F)c1)Oc1ccccc1-3 (racemic) [Compound 192, (R/S)-5-(3-Fluorophenyl)-1,2,3,4-tetrahydro-2,2-dimethyl-4-methylidene-5H-chromeno[3,4-f]quinoline]
- Emax (MR): 70%
- Emax (GR): 81%
- EC50 (ER [2]): > 10 µM
- Emax (ER [2]): < 20%
- IC50 (ER [3]): 195 nM
- ER Antagonist CV-1 Cells Efficacy (%) (ER [3]): 80%
- IC50 (AR): 79 nM
- IC50 (human PR-B [4]): 89 nM
- EC50 (human PR-B [1]): > 10000 nM

Compound: CC1=CC(C)(C)Nc2ccc3c(c21)C(c1ccsc1)Oc1ccccc1-3 (racemic) [Compound 170, (R/S)-1,2-Dihydro-2,2,4-trimethyl-5-(thiophen-3-yl)-5H-chromeno[3,4-f]quinoline]
- Emax (MR): 84%
- Emax (GR): 94%
- IC50 (ER [3]): 580 nM
- ER Antagonist CV-1 Cells Efficacy (%) (ER [3]): 78%
- IC50 (AR): 290 nM
- IC50 (human PR-B [4]): 145 nM
- EC50 (human PR-B [1]): 73 nM

Compound: CC(C)(O)C(=O)Nc1ccc([N+](=O)[O-])c(C(F)(F)F)c1 [Flut]
- EC50 (ER [2]): > 10 µM
- IC50 (ER [3]): > 10000 nM

Compound: CCCCN(C)C(=O)CCCCCCCCCC[C@@H]1Cc2cc(O)ccc2[C@H]2CC[C@]3(C)[C@@H](O)CC[C@H]3[C@H]12 [ICI 164, N-butyl-3,17-dihydroxy-N-methyl-(7-alpha, 17-beta)-estra-1,3,5(10)-triene-7-undecanamide, reference compound]
- Emax (ER [2]): < 20%
- ER Antagonist CV-1 Cells Efficacy (%) (ER [3]): 99%

Compound: CC1=CC(C)(C)Nc2ccc3c(c21)C(c1ccccc1)Oc1ccccc1-3 (racemic) [Compound 161, (R/S)-1,2-Dihydro-2,2,4-trimethyl-5-phenyl-5H-chromeno[3,4-f]quinoline]
- Emax (MR): 58%
- Emax (GR): 97%
- Emax (human PR-B [4]): 75%
- Emax (human PR-B [1]): 47%
